From US7700617B2, “Salt of naphthyridine carboxylic acid derivative” (LG Life Sciences, Ltd., priority 1997, dated 2010)
Values after ≈ are worked out from the molar mass of the structure shown. Blank lines part the entries; values can stand above or below the compound they belong to.

Tests used:
Water solubility = conditions: 25 °C
[1] = Observed moisture content of the methanesulfonate hydrates; format: physicochemical; conditions: by hydration number (n)
Source text: The moisture content of the methanesulfonate hydrates varies with the hydration number (n) of the hydrated molecule. The methanesulfonate has a molecular weight of 485.5 thus the calculated moisture content of hydrates where n is 1, 1.5, 2, 2.5, 3, 3.5 and 4 is 3.6%, […], 6.9%, 8.5%, 10.0%, 11.5% and 12.9% respectively. However, the actual moisture content of the methanesulfonate hydrates may differ from the calculated value depending on various factors including recrystallization conditions and drying conditions.

Escherichia coli 3190Y = assay: In vitro antibacterial activity, agar medium dilution method; format: cell-based; conditions: read-out: Minimum Inhibitory Concentration: MIC
Method: (§1) In order to determine whether 7-(3-aminomethyl-4-methyloxyimino-pyrrolidin-1-yl)-1-cyclopropyl-6-fluoro-4-oxo-1,4-dihydro-1,8-naphthyridine-3-carboxylic acid methanesulfonate has the same antibacterial activity as the free base, in vitro antibacterial activity of the methanesulfonate was measured using agar medium dilution method.

Enterobacter cloacae P99 = assay: as above; format: cell-based; conditions: read-out: Minimum Inhibitory Concentration: MIC
Method: as §1

Bacillus subtilis 6633 = assay: as above; format: cell-based; conditions: read-out: Minimum Inhibitory Concentration: MIC
Method: as §1

Escherichia coli 10536 = assay: as above; format: cell-based; conditions: read-out: Minimum Inhibitory Concentration: MIC
Method: as §1

[2] = tested on: Pseudomonas aeruginosa 10145; assay: as above; format: cell-based; conditions: read-out: Minimum Inhibitory Concentration: MIC
Method: as §1

[3] = tested on: Staphylococcus aureus epidermidis 178; assay: as above; format: cell-based; conditions: read-out: Minimum Inhibitory Concentration: MIC
Method: as §1

Seratia marsecence 1826E = assay: as above; format: cell-based; conditions: read-out: Minimum Inhibitory Concentration: MIC
Method: as §1

[4] = tested on: Escherichia coli TEM3 3455E; assay: as above; format: cell-based; conditions: TEM33455E, read-out: Minimum Inhibitory Concentration: MIC
Method: as §1

Micrococcus luteus 9431 = assay: as above; format: cell-based; conditions: read-out: Minimum Inhibitory Concentration: MIC
Method: as §1

[5] = tested on: Citrobacter diversus 2046E; assay: as above; format: cell-based; conditions: Citrobacter koseri, read-out: Minimum Inhibitory Concentration: MIC
Method: as §1

[6] = tested on: Enterobacter cloacae 1194E; assay: as above; format: cell-based; conditions: read-out: Minimum Inhibitory Concentration: MIC
Method: as §1

[7] = tested on: Pseudomonas aeruginosa 1912E; assay: as above; format: cell-based; conditions: read-out: Minimum Inhibitory Concentration: MIC
Method: as §1

[8] = tested on: Klebsiella aerogenes 1976E; assay: as above; format: cell-based; conditions: read-out: Minimum Inhibitory Concentration: MIC
Method: as §1

[9] = tested on: Klebsiella aerogenes 1082E; assay: as above; format: cell-based; conditions: read-out: Minimum Inhibitory Concentration: MIC
Method: as §1

[10] = tested on: Salmonella thypimurium 14028; assay: as above; format: cell-based; conditions: read-out: Minimum Inhibitory Concentration: MIC
Method: as §1

[11] = tested on: Staphylococcus aureus epidermidis 887E; assay: as above; format: cell-based; conditions: read-out: Minimum Inhibitory Concentration: MIC
Method: as §1

[12] = tested on: Staphylococcus aureus faecalis 29212; assay: as above; format: cell-based; conditions: read-out: Minimum Inhibitory Concentration: MIC
Method: as §1

[13] = tested on: Escherichia coli TEM9 2639E; assay: as above; format: cell-based; conditions: TEM92639E, read-out: Minimum Inhibitory Concentration: MIC
Method: as §1

[14] = tested on: Staphylococcus aureus 6538p; assay: as above; format: cell-based; conditions: weight ratio, molecular weight not considered, read-out: Minimum Inhibitory Concentration: MIC
Method: as §1

Proteus vulgaris 6059 = assay: as above; format: cell-based; conditions: read-out: Minimum Inhibitory Concentration: MIC
Method: as §1

Staphylococcus aureus 77 = assay: as above; format: cell-based; conditions: read-out: Minimum Inhibitory Concentration: MIC
Method: as §1

[15] = tested on: Staphylococcus aureus 241; assay: as above; format: cell-based; conditions: read-out: Minimum Inhibitory Concentration: MIC
Method: as §1

[16] = tested on: Staphylococcus aureus giorgio; assay: as above; format: cell-based; conditions: read-out: Minimum Inhibitory Concentration: MIC
Method: as §1

Escherichia coli 851E = assay: as above; format: cell-based; conditions: read-out: Minimum Inhibitory Concentration: MIC
Method: as §1

[17] = tested on: Escherichia coli TEM5 3739E; assay: as above; format: cell-based; conditions: TEM53739E, read-out: Minimum Inhibitory Concentration: MIC
Method: as §1

[18] = tested on: Acinetobacter calcoaceticus 15473; assay: as above; format: cell-based; conditions: read-out: Minimum Inhibitory Concentration: MIC
Method: as §1

[19] = Equilibrium moisture content determination of hydrates in desiccators of controlled relative humidity; format: physicochemical; conditions: for Relative humidity range with constant moisture content: FIGS. 3 and 4
Method: Six saturated aqueous salt solutions were introduced into each desiccator to control the inner relative humidity to a specific value as shown in Table 3. Then, equilibrium moisture contents of n=3 hydrate and n=1.5 hydrate of Examples 2 and 3, respectively, were determined at several relative humidities.
The sample (100 mg) was spread on a pre-weighed Petri dish and the total weight was accurately measured, then three of the sample were placed in each desiccator of Table 3. The desiccators were allowed to stand at normal temperature for 7 days and then the sample was taken to be weighed. After 13 days, one of the three samples inside each desiccator was taken and the moisture content of each was measured by the thermogravimetric analysis described in Test Example 2. Equilibrium moisture content at each relative humidity is represented in FIG. 3 (n=3 hydrate) and FIG. 4 (n=1.5 hydrate). […] Both hydrates are stable since they maintain a constant equilibrium moisture content regardless of the relative humidity change.

[20] = Chemical stability at elevated temperature, decomposition by liquid chromatography; format: physicochemical; conditions: for Chemical stability compared with the anhydrate: 70° C., liquid chromatography; for Thermal stability with elapsed time: at 70° C.
Method: The present inventors also compared the chemical stability under heating of the hydrates with that of the anhydrate in order to identify the influence of hydration on the chemical stability. In this test, the anhydrate and hydrate were each kept at 70° C. for 4 weeks, and the extent of decomposition is analyzed by liquid chromatography. No difference in the extent of decomposition was noticed between the hydrates and the anhydrate, and thus confirming that the hydrate has the same chemical stability as the anhydrate.
The chemical stability of the n=3 hydrate of Example 2 and the n=1.5 hydrate of Example 3 and the anhydrate of Example 1 were compared at elevated temperature in order to determine the effect on chemical stability of the extent of hydration.
The anhydrate and each of the hydrates were introduced into a glass vial and maintained at 70° C. The extent of decomposition with elapsed time was analyzed by liquid chromatography.

[21] = Moisture sorption of the anhydrate, automatic moisture sorption analyzer; format: physicochemical; conditions: 25° C., each relative humidity 0 to 95%, in most cases
Method: The moisture sorption velocity and the equilibrium moisture content of the anhydrate of Example 1 was determined by means of an automatic moisture sorption analyzer (MB 300G Gravimetric Sorption Analyzer). This instrument produces a specific relative humidity at a specific temperature and continuously records the weight change of a sample due to adsorption or desorption of moisture as measured by a micro balance inside the instrument. The anhydrate of Example 1 (16 mg) was loaded onto the micro balance and the moisture contained in the sample removed under a stream of dried nitrogen at 50° C. A weight change of less than 5 μg per 5 minutes was the criterion for complete dryness. Thereafter, the inner temperature was adjusted to 25° C. and the sample tested at 5% intervals whilst varying the humidity from 0 to 95%. The sample was considered to have reached equilibrium when the weight change was less than 5 μg per 5 minutes. […] It is clear from FIG. 2 that the equilibrium moisture content of the anhydrate is dependent on the relative humidity.

solubility (Water solubility): 7 µg/mL (≈ 18 µM)
SMILES: CO/N=C1\CN(c2nc3c(cc2F)c(=O)c(C(=O)O)cn3C2CC2)CC1CN (stereo not drawn) [Free form, 7-(3-aminomethyl-4-methoxyiminopyrrolidin-1-yl)-1-cyclopropyl-6-fluoro-4-oxo-1,4-dihydro-1,8-naphthyridine-3-carboxylic acid]

SMILES: CON=C1CN(c2nc3c(cc2F)c(=O)c(C(=O)O)cn3C2CC2)CC1CN.CS(=O)(=O)O.O.O.O.O (stereo not drawn) [n = 4 hydrate]
Moisture Content [1]: 12~13 % w/w

SMILES: CON=C1CN(c2nc3c(cc2F)c(=O)c(C(=O)O)cn3C2CC2)CC1CN.CS(=O)(=O)O (stereo not drawn) [Methanesulfonic acid salt, 7-(3-aminomethyl-4-methyloxyimino-pyrrolidin-1-yl)-1-cyclopropyl-6-fluoro-4-oxo-1,4-dihydro-1,8-naphthyridine-3-carboxylic acid methanesulfonate]
MIC (Escherichia coli 3190Y): 0.008 µg/mL
MIC (Enterobacter cloacae P99): 0.016 µg/mL
MIC (Bacillus subtilis 6633): 0.016 µg/mL
MIC (Escherichia coli 10536): 0.008 µg/mL
MIC [2]: 0.5 µg/mL
MIC [3]: 4 µg/mL
MIC (Seratia marsecence 1826E): 0.13 µg/mL
MIC [4]: 0.25 µg/mL
MIC (Micrococcus luteus 9431): 0.13 µg/mL
MIC [5]: 0.031 µg/mL
MIC [6]: 0.031 µg/mL
MIC [7]: 0.25 µg/mL
MIC [8]: 0.13 µg/mL
MIC [9]: 0.031 µg/mL
MIC [10]: 0.031 µg/mL
MIC [11]: 0.016 µg/mL
MIC [12]: 0.13 µg/mL
MIC [13]: 0.031 µg/mL
MIC [14]: 0.016 µg/mL
MIC (Proteus vulgaris 6059): 0.25 µg/mL
MIC (Staphylococcus aureus 77): 0.031 µg/mL
MIC [15]: 4 µg/mL
MIC [16]: 0.016 µg/mL
MIC (Escherichia coli 851E): 0.016 µg/mL
MIC [17]: 0.13 µg/mL
MIC [18]: 0.031 µg/mL

SMILES: O=C(O)c1cn(C2CC2)c2cc(N3CCNCC3)c(F)cc2c1=O [Ciprofloxacin, ciprofloxacin, reference compound]
MIC (Escherichia coli 3190Y): < 0.008 µg/mL
MIC (Bacillus subtilis 6633): 0.031 µg/mL (≈ 0.0936 µM)
MIC (Escherichia coli 10536): < 0.008 µg/mL
MIC [2]: 0.5 µg/mL (≈ 1.51 µM)
MIC [3]: 128 µg/mL (≈ 386 µM)
MIC (Seratia marsecence 1826E): 0.063 µg/mL (≈ 0.19 µM)
MIC [4]: 0.5 µg/mL (≈ 1.51 µM)
MIC (Micrococcus luteus 9431): 2 µg/mL (≈ 6.04 µM)
MIC [7]: 0.13 µg/mL (≈ 0.392 µM)
MIC [8]: 0.13 µg/mL (≈ 0.392 µM)
MIC [10]: 0.031 µg/mL (≈ 0.0936 µM)
MIC [11]: 0.13 µg/mL (≈ 0.392 µM)
MIC [12]: 0.5 µg/mL (≈ 1.51 µM)
MIC [14]: 0.13 µg/mL
MIC (Proteus vulgaris 6059): 0.031 µg/mL (≈ 0.0936 µM)
MIC (Staphylococcus aureus 77): 0.25 µg/mL (≈ 0.754 µM)
MIC [15]: 128 µg/mL (≈ 386 µM)
MIC [16]: 0.13 µg/mL (≈ 0.392 µM)
MIC (Escherichia coli 851E): < 0.008 µg/mL
MIC [17]: 0.13 µg/mL (≈ 0.392 µM)
MIC [18]: 0.25 µg/mL (≈ 0.754 µM)

SMILES: CON=C1CN(c2nc3c(cc2F)c(=O)c(C(=O)O)cn3C2CC2)CC1CN.CON=C1CN(c2nc3c(cc2F)c(=O)c(C(=O)O)cn3C2CC2)CC1CN.CS(=O)(=O)O.CS(=O)(=O)O.O.O.O (stereo not drawn) [n = 1.5 hydrate, 7-(3-aminomethyl-4-methoxyiminopyrrolidin-1-yl)-1-cyclopropyl-6-fluoro-4-oxo-1,4-dihydro-1,8-naphthyridine-3-carboxylic acid methanesulfonate n=1.5 hydrate]
Relative humidity range with constant moisture content [19]: 23 to 64%
Water taken up ([19]; above 75% relative humidity): over 10%
Equilibrium moisture content ([19]; relative humidity 23 to 64%): around 5%
Moisture Content ([1]; listed as 1.5, hydrate): 4~6 % w/w
Chemical stability compared with the anhydrate ([20]; 4 weeks): same degree of chemical stability as the anhydrate
Thermal stability with elapsed time ([20]; 1 week): 97.3%
Thermal stability with elapsed time ([20]; 2 weeks): 95.8%
Thermal stability with elapsed time ([20]; 3 weeks): 97.2%
Thermal stability with elapsed time ([20]; 4 weeks): 96.2%
Thermal stability with elapsed time ([20]; Initial): 100%

SMILES: CON=C1CN(c2nc3c(cc2F)c(=O)c(C(=O)O)cn3C2CC2)CC1CN.CON=C1CN(c2nc3c(cc2F)c(=O)c(C(=O)O)cn3C2CC2)CC1CN.CS(=O)(=O)O.CS(=O)(=O)O.O.O.O.O.O.O.O (stereo not drawn) [n = 3.5 hydrate]
Moisture Content [1]: 11~12 % w/w

SMILES: CON=C1CN(c2nc3c(cc2F)c(=O)c(C(=O)O)cn3C2CC2)CC1CN.CON=C1CN(c2nc3c(cc2F)c(=O)c(C(=O)O)cn3C2CC2)CC1CN.CS(=O)(=O)O.CS(=O)(=O)O.O.O.O.O.O (stereo not drawn) [n = 2.5 hydrate]
Moisture Content [1]: 8~9 % w/w

SMILES: CON=C1CN(c2nc3c(cc2F)c(=O)c(C(=O)O)cn3C2CC2)CC1CN.CS(=O)(=O)O (stereo not drawn) [Anhydrate, 7-(3-aminomethyl-4-methoxyiminopyrrolidin-1-yl)-1-cyclopropyl-6-fluoro-4-oxo-1,4-dihydro-1,8-naphthyridine-3-carboxylic acid methanesulfonate anhydrate]
Time to reach moisture sorption equilibrium [21]: ≤ 2 h
Thermal stability with elapsed time ([20]; 1 week): 99.8%
Thermal stability with elapsed time ([20]; 2 weeks): 98.6%
Thermal stability with elapsed time ([20]; 3 weeks): 97.7%
Thermal stability with elapsed time ([20]; 4 weeks): 96.7%
Thermal stability with elapsed time ([20]; Initial): 100%

SMILES: CON=C1CN(c2nc3c(cc2F)c(=O)c(C(=O)O)cn3C2CC2)CC1CN.CS(=O)(=O)O.O.O.O (stereo not drawn) [n = 3 hydrate, 7-(3-aminomethyl-4-methoxyiminopyrrolidin-1-yl)-1-cyclopropyl-6-fluoro-4-oxo-1,4-dihydro-1,8-naphthyridine-3-carboxylic acid methanesulfonate n=3 hydrate]
Relative humidity range with constant moisture content [19]: 23 to 75%
Equilibrium moisture content ([19]; relative humidity 23 to 75%, about 2 weeks): around 10%
Chemical stability compared with the anhydrate ([20]; 4 weeks): same degree of chemical stability as the anhydrate
Thermal stability with elapsed time ([20]; 1 week): 102.4%
Thermal stability with elapsed time ([20]; 2 weeks): 100.7%
Thermal stability with elapsed time ([20]; 3 weeks): 99.2%
Thermal stability with elapsed time ([20]; 4 weeks): 99.2%
Thermal stability with elapsed time ([20]; Initial): 100%
